Data reported in US20200179361A1, “COMPOSITIONS, METHODS OF USE, AND METHODS OF TREATMENT” (TORREY PINES INSTITUTE FOR MOLECULAR STUDIES, priority 2017, published 2020).
“Also recorded” adds a separate entry of the source.

Key:
[1] = smoking cessation; cited from earlier work
Male Sprague Dawley rats = settings: rat, in vivo
Procedure: Male Sprague Dawley rats obtained from Charles River (Portage, Mich.) and weighing 200-225 g at their arrival were used in this study. Rats were housed in groups of two in a room with a reverse 12 h light/12 h dark cycle (lights off at 07:30 AM). All experiments were conducted during the dark phase of the cycle. Animals were acclimatized for 7 days with water and chow (Teklad Diets, Madison, Wis.) and handled for 3 times before the experiments were started. Throughout all operant procedures, rats were food restricted (received 20 g of chow daily) with water freely accessible.
5 was dissolved in a vehicle of 0.9% saline and injected subcutaneously at doses of (0.0, 0.3, 1.0 mg/kg). The injection volume was 1 ml/kg. […] (−)-Nicotine hydrogen tartrate salt and alcohol were purchased from Sigma (St. Louis, Mo.). Alcohol was diluted to a concentration of 10% v/v in water and made available orally. Nicotine solution for i.v. injection (30 micrograms/kg/0.1 ml infusion) was obtained by dissolving the salt in 0.9% saline and the pH adjusted to 7.0-7.4 with 3 M sodium hydroxide. Nicotine self-administration dose is reported as free base concentration.
The self-administration boxes consisted of operant conditioning chambers (Med Associates, Inc., St. Albans, Vt.) enclosed in lit, sound attenuating, ventilated environmental cubicles. […]

[2] = pharmacokinetics, blood content and blood brain barrier penetration after sc administration; settings: rats, 2.0 mg/kg sc

SMILES | cessation rates in most clinical trials [1] | nicotine self-administration analysed in 30-min intervals (Male Sprague Dawley rats) | time to maximal concentration in blood and brain [2] [min]
CC(NC(C)(C)C)C(=O)c1cccc(Cl)c1 (stereo not shown) [bupropion] | 15-25% |  | 
c1cnc2cc3c(cc2n1)[C@@H]1CNC[C@H]3C1 [varenicline] | 23-40% |  | 
C[C@H]1CNC(=N)N1CCc1cccnc1 [Compound 5, (S)-5-Methyl-1-(2-(pyridin-3-yl)ethyl)imidazolidin-2-imine] |  | decreased nicotine self-administration during the first 30 min but not during the remaining 90-min period; also recorded: reducing nicotine self-administration only in the first 30 min | ≤ 10
